IC50 data for 24 compounds are collected here from patent publication US11845760B2, “PRMT5 inhibitors” (AMGEN INC., priority 2020, dated 2023).

One test has as its system HCT116 WT cells. Put plainly: HCT116 WT cell line proliferation (CellTiter-Glo cell viability, 6 days). The class given is cell-based. As to conditions: HCT116 WT (parent) cells, 6 days of treatment, CellTiter-Glo cell viability, read-out: HCT-116 WT IC50. The method, boiled down: (§1)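 Isogenic HCT116 pair (parent and MTAP double-allele knockout) in RPMI 1640 + 10% FBS, exposed 6 days to compound: 8–9-point 1:3 dilutions from 1 or 10 μM top, or 22-point 1:2 dilutions from 10 or 50 μM top. CellTiter-Glo luminescence; IC50 from sigmoidal fit (Hill −1) or 4-parameter logistic.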
(In ATP-based viability assays light output follows the ATP content of the culture.)

The next test has as its system HCT116 MTAP null cells. Put plainly: HCT116 MTAP null cell line proliferation (CellTiter-Glo cell viability, 6 days). The class given is cell-based. As to conditions: HCT116 MTAP null cells, 6 days of treatment, CellTiter-Glo cell viability, read-out: HCT-116 MTAP null IC50. The method, boiled down:
as §1

Where two headings read alike, the source gives them in different places.

For `Nc1nc2cnc(C(=O)N3CCOC[C@@H]3c3ccc(OC(F)F)nc3)cc2c2c1COC2.Nc1nc2cnc(C(=O)N3CCOC[C@H]3c3ccc(OC(F)F)nc3)cc2c2c1COC2` [Example 394, (4-amino-1,3-dihydrofuro[3,4-c][1,7]naphthyridin-8-yl)((3R)-3-(6-(difluoromethoxy)-3-pyridinyl)-4-morpholinyl)methanone (4-amino-1,3-dihydrofuro[3,4-c][1,7]naphthyridin-8-yl)((3S)-3-(6-(difluoromethoxy)-3-pyridinyl)-4-morpholinyl)methanone], the IC50 was 36400 nM with HCT116 WT cells and 624 nM in the test with HCT116 MTAP null cells.
Consider `C[C@H]1OCc2c1c(N)nc1ccc(C(=O)N3CC(c4ccccc4)C4CCCC43)cc21` (stereo partly drawn) [Example 395, ((3R)-4-amino-3-methyl-1,3-dihydrofuro[3,4-c]quinolin-8-yl)(3-phenylhexahydrocyclopenta[b]pyrrol-1(2H)-yl)methanone], for which the IC50 was determined as 8240 nM in the test with HCT116 WT cells (Homo sapiens, HCT-116, 144 h) and 303 nM in the test with HCT116 MTAP null cells (HCT116-MTAP null, 144 h).
Take `C[C@H]1OCc2c1c(N)nc1ccc(C(=O)N3CC(c4ccc(Cl)cc4)CC3C3CC3)cc21` (stereo partly drawn) [Example 396, ((3R)-4-amino-3-methyl-1,3-dihydrofuro[3,4-c]quinolin-8-yl)(4-(4-chlorophenyl)-2-cyclopropylpyrrolidin-1-yl)methanone]: the IC50 with HCT116 WT cells (Homo sapiens, HCT-116, 144 h) was 13300 nM; in the test with HCT116 MTAP null cells (HCT116-MTAP null, 144 h), 866 nM.
`C[C@H]1OCc2c1c(N)nc1ccc(C(=O)N3CC(c4ccccc4)C4COCCC43)cc21` (stereo partly drawn) [Example 397, ((3R)-4-amino-3-methyl-1,3-dihydrofuro[3,4-c]quinolin-8-yl)(3-phenylhexahydropyrano[4,3-b]pyrrol-1(4H)-yl)methanone]: the IC50 came to 32000 nM in the test on HCT116 WT cells (Homo sapiens, HCT-116, 144 h) and 380 nM in the test on HCT116 MTAP null cells (HCT116-MTAP null, 144 h).
Take `C[C@H]1OCc2c1c(N)nc1ccc(C(=O)N3C[C@H](c4ccc(Cl)cc4)C[C@H]3C3CC3)cc21` [Example 398, ((3R)-4-amino-3-methyl-1,3-dihydrofuro[3,4-c]quinolin-8-yl)((2S,4S)-4-(4-chlorophenyl)-2-cyclopropyl-1-pyrrolidinyl)methanone]: the IC50 in the test on HCT116 WT cells (Homo sapiens, HCT-116, 144 h) was determined as 13200 nM; in the test with HCT116 MTAP null cells (HCT116-MTAP null, 144 h), 609 nM.
The like results for `C[C@H]1OCc2c1c(N)nc1ccc(C(=O)N3C[C@@H](c4ccccc4)[C@@H]4COCC[C@@H]43)cc21` [Example 399, ((3R)-4-amino-3-methyl-1,3-dihydrofuro[3,4-c]quinolin-8-yl)((3R,3aS,7aS)-3-phenylhexahydropyrano[4,3-b]pyrrol-1(4H)-yl)methanone] were, in that order, 13000 nM and 197 nM.
Take `C[C@H]1OCc2c1c(N)nc1ccc(C(=O)N3C[C@@H](c4ccccc4)[C@@H]4CCC[C@@H]43)cc21` [Example 400, ((3R)-4-amino-3-methyl-1,3-dihydrofuro[3,4-c]quinolin-8-yl)((3R,3aS,6aS)-3-phenylhexahydrocyclopenta[b]pyrrol-1(2H)-yl)methanone]: the IC50 with HCT116 WT cells (Homo sapiens, HCT-116, 144 h) worked out at 7000 nM; in the test with HCT116 MTAP null cells (HCT116-MTAP null, 144 h), 159 nM.
`C[C@H]1OCc2c1c(N)nc1ccc(C(=O)N3C[C@H](c4ccccc4)[C@H]4CCC[C@@H]43)cc21` [Example 401, ((3R)-4-amino-3-methyl-1,3-dihydrofuro[3,4-c]quinolin-8-yl)((3S,3aR,6aS)-3-phenylhexahydrocyclopenta[b]pyrrol-1(2H)-yl)methanone]: the IC50 in the test with HCT116 WT cells (Homo sapiens, HCT-116, 144 h) is 17600 nM; in the test with HCT116 MTAP null cells (HCT116-MTAP null, 144 h) it was 677 nM.
The like results for `CC1CN(C(=O)c2ccc3nc(N)c4c(c3c2)CO[C@@H]4C)CC1c1ccc(Br)cc1` (stereo partly drawn) [Example 402, ((3R)-4-amino-3-methyl-1,3-dihydrofuro[3,4-c]quinolin-8-yl)(3-(4-bromophenyl)-4-methylpyrrolidin-1-yl)methanone] were, in that order, 13300 nM and 833 nM.
The corresponding values for `Nc1nc2ccc(C(=O)N3CCOC[C@@H]3c3ccc(C(F)(F)F)cc3)cc2n2ccnc12` [Example 403, (4-aminoimidazo[1,2-a]quinoxalin-8-yl)((3S)-3-(4-(trifluoromethyl)phenyl)-4-morpholinyl)methanone] are 673 nM and 765 nM.
The corresponding values for `Nc1nc2cnc(C(=O)N3CCOC[C@@H]3c3ccc(C(F)(F)F)cc3)cc2c2c1CCO2` [Example 404, (4-amino-2,3-dihydrofuro[3,2-c][1,7]naphthyridin-8-yl)((3S)-3-(4-(trifluoromethyl)phenyl)-4-morpholinyl)methanone] are 9760 nM and 872 nM.
For `Cc1n[nH]c2c1c(N)nc1ccc(C(=O)N3CCOC[C@@H]3c3ccc(C(F)(F)F)cc3)cc12` [Example 405, (4-amino-3-methyl-1H-pyrazolo[4,3-d]quinolin-8-yl)((3S)-3-(4-(trifluoromethyl)phenyl)-4-morpholinyl)methanone], the IC50 in the test on HCT116 WT cells (Homo sapiens, HCT-116, 144 h) was found to be 2700 nM; with HCT116 MTAP null cells (HCT116-MTAP null, 144 h), 181 nM.
The corresponding values for `Cc1n[nH]c2c1c(N)nc1cnc(C(=O)N3CCOC[C@@H]3c3ccc(C(F)(F)F)cc3)cc12` [Example 406, (4-amino-3-methyl-1H-pyrazolo[4,3-c][1,7]naphthyridin-8-yl)((3S)-3-(4-(trifluoromethyl)phenyl)-4-morpholinyl)methanone] are 5640 nM and 155 nM.
As to `Nc1nc2cc(F)c(C(=O)N3CCOC[C@@H]3c3ccc(C(F)(F)F)cc3)cc2c2c1CCO2` [Example 407, (4-amino-7-fluoro-2,3-dihydrofuro[3,2-c]quinolin-8-yl)((3S)-3-(4-(trifluoromethyl)phenyl)-4-morpholinyl)methanone], the IC50 came to 4210 nM with HCT116 WT cells (Homo sapiens, HCT-116, 144 h) and 416 nM in the test with HCT116 MTAP null cells (HCT116-MTAP null, 144 h).
On to `Cn1ncc2c(N)nc3ccc(C(=O)N4CC(c5ccc(C(F)(F)F)cc5)C4)cc3c21` [Example 408, (4-amino-1-methyl-1H-pyrazolo[4,3-c]quinolin-8-yl)(3-(4-(trifluoromethyl)phenyl)-1-azetidinyl)methanone], for which the IC50 in the test on HCT116 WT cells (Homo sapiens, HCT-116, 144 h) was found to be 6360 nM; with HCT116 MTAP null cells (HCT116-MTAP null, 144 h), 118 nM.
On to `Cn1ncc2c(N)nc3ccc(C(=O)N4CCOC[C@@H]4c4ccc(C(F)(F)C(F)(F)F)cc4)cc3c21` [Example 409, (4-amino-1-methyl-1H-pyrazolo[4,3-c]quinolin-8-yl)((3S)-3-(4-(pentafluoroethyl)phenyl)-4-morpholinyl)methanone], for which the IC50 is 1670 nM in the test on HCT116 WT cells (Homo sapiens, HCT-116, 144 h) and 29 nM in the test with HCT116 MTAP null cells (HCT116-MTAP null, 144 h).
As to `Cn1ncc2c(N)nc3cnc(C(=O)N4CCOC[C@@H]4c4ccc(C(F)(F)C(F)(F)F)cc4)cc3c21` [Example 410, (4-amino-1-methyl-1H-pyrazolo[4,3-c][1,7]naphthyridin-8-yl)((3S)-3-(4-(pentafluoroethyl)phenyl)-4-morpholinyl)methanone], the IC50 was determined as 444 nM with HCT116 WT cells (Homo sapiens, HCT-116, 144 h) and 15 nM in the test with HCT116 MTAP null cells (HCT116-MTAP null, 144 h).
Consider `Cn1ncc2c(N)nc3cc(F)c(C(=O)N4CCOC[C@@H]4c4ccc(C(F)(F)C(F)(F)F)cc4)cc3c21` [Example 411, (4-amino-7-fluoro-1-methyl-1H-pyrazolo[4,3-c]quinolin-8-yl)((3S)-3-(4-(pentafluoroethyl)phenyl)-4-morpholinyl)methanone], for which the IC50 with HCT116 WT cells (Homo sapiens, HCT-116, 144 h) turned out to be 352 nM; with HCT116 MTAP null cells (HCT116-MTAP null, 144 h), 8 nM.
Regarding `Cc1cc2nc(N)c3cnn(C)c3c2cc1C(=O)N1CCOC[C@@H]1c1ccc(C(F)(F)F)cc1` [Example 413, (4-amino-1,7-dimethyl-1H-pyrazolo[4,3-c]quinolin-8-yl)((3S)-3-(4-(trifluoromethyl)phenyl)-4-morpholinyl)methanone], the IC50 in the test on HCT116 WT cells (Homo sapiens, HCT-116, 144 h) was found to be 413 nM; in the test with HCT116 MTAP null cells (HCT116-MTAP null, 144 h) it was 22 nM.
Turning to `Cc1cc2nc(N)c3c(cnn3C)c2cc1C(=O)N1CCOC[C@@H]1c1ccc(C(F)(F)F)cc1` [Example 414, (4-amino-3,7-dimethyl-3H-pyrazolo[3,4-c]quinolin-8-yl)((3S)-3-(4-(trifluoromethyl)phenyl)-4-morpholinyl)methanone], the IC50 in the test on HCT116 WT cells (Homo sapiens, HCT-116, 144 h) worked out at 2800 nM; with HCT116 MTAP null cells (HCT116-MTAP null, 144 h), 56 nM.
With `Cc1nc2nc(N)c3cnn(C)c3c2cc1C(=O)N1CCOC[C@@H]1c1ccc(C(F)(F)F)cc1` [Example 415, (4-amino-1,7-dimethyl-1H-pyrazolo[4,3-c][1,8]naphthyridin-8-yl)((3S)-3-(4-(trifluoromethyl)phenyl)-4-morpholinyl)methanone], the IC50 in the test with HCT116 WT cells (Homo sapiens, HCT-116, 144 h) was determined as 3340 nM; with HCT116 MTAP null cells (HCT116-MTAP null, 144 h) it was 73 nM.
For `C[C@H]1OCc2c1c(N)nc1ccc(C(=O)N3CCOC[C@@H]3c3ccc(S(F)(F)(F)(F)F)cc3)cc21` [Example 416, ((3R)-4-amino-3-methyl-1,3-dihydrofuro[3,4-c]quinolin-8-yl)((3S)-3-(4-(pentafluoro-lambda~6~-sulfanyl)phenyl)-4-morpholinyl)methanone], the IC50 with HCT116 WT cells (Homo sapiens, HCT-116, 144 h) stood at 867 nM; in the test with HCT116 MTAP null cells (HCT116-MTAP null, 144 h) it was 33 nM.
In the case of `C[C@H]1OCc2c1c(N)nc1cnc(C(=O)N3CCOC[C@@H]3c3ccc(S(F)(F)(F)(F)F)cc3)cc21` [Example 417, ((3R)-4-amino-3-methyl-1,3-dihydrofuro[3,4-c][1,7]naphthyridin-8-yl)((3S)-3-(4-(pentafluoro-lambda~6~-sulfanyl)phenyl)-4-morpholinyl)methanone], the IC50 in the test with HCT116 WT cells (Homo sapiens, HCT-116, 144 h) was determined as 523 nM; with HCT116 MTAP null cells (HCT116-MTAP null, 144 h), 17 nM.
The corresponding values for `Nc1nc2cc(Cl)c(C(=O)N3CCOC[C@@H]3c3ccc(S(F)(F)(F)(F)F)cc3)cc2c2c1COC2` [Example 418, (4-amino-7-chloro-1,3-dihydrofuro[3,4-c]quinolin-8-yl)((3S)-3-(4-(pentafluoro-lambda~6~-sulfanyl)phenyl)-4-morpholinyl)methanone] are 243 nM and 10 nM.

What is called IC50 is the concentration that gives 50% inhibition.
